The results in this text go back to patent publication US10828301B2, “2,4-pyrimidinediamine compounds and their uses” (Rigel Pharmaceuticals, Inc, priority 2002, dated 2020).

The structures appear in SMILES notation. Read-outs that look alike come from different tables or passages of the source.

This test concerns cultured human mast cells (CHMC). The test is described as follows: CHMC low cell density IgE activation: tryptase and LTC4 assays. The test is classed as cell-based. The procedure: Pellet CHMC cells (980 rpm, 10 min) and resuspend in pre-warmed MT. Add 65 ul of cells to each 96-well plate. Depending on the degranulation activity for each particular CHMC donor, load 1000-1500 cells/well. Mix four times followed by a 1 hr incubation at 37° C. […] Stimulate cells by adding 25 ul of 6× anti-IgE solution to the appropriate plates. Add 25 ul MT to un-stimulated control wells. Mix twice following addition of the anti-IgE. Incubate at 37° C. for 30 minutes. […] Spin plates at 1000 rpm for 10 min to pellet cells. Transfer 25 ul of supernatant to a 96-well black bottom plate and add 100 ul of freshly diluted tryptase substrate solution to each well. Incubate plates at room temperature for 30 min.
Leukotriene C4 (LTC4) is also quantified using an ELISA kit on appropriately diluted supernatant samples (determined empirically for each donor cell population so that the sample measurement falls within the standard curve) following the supplier's instructions.

The mark [1] stands for this setting: Homo sapiens, Mast cell, Low Density CHMC, anti-IgE activation, tryptase readout, read-out: CHMC anti-IgE Tryptase.
[2] abbreviates: Homo sapiens, Mast cell, read-out: CHMC anti-IgE Tryptase.
Setting [3] is: Low Density CHMC, anti-IgE activation, tryptase readout, read-out: CHMC anti-IgE Tryptase.

As to `Nc1c(F)ccc(Nc2ccnc(Nc3ccc(F)c(N)c3F)n2)c1F` [Compound R950131, N2,N4-Bis(3-amino-2,4-difluorophenyl)-2,4-pyrimidinediamine], the IC50 under setting [1] is above 10 µM.
With `O=[N+]([O-])c1ccc(O)c(Nc2ccnc(Nc3cc([N+](=O)[O-])ccc3O)n2)c1` [Compound R950155, N2,N4-Bis(2-hydroxy-5-nitrophenyl)-2,4-pyrimidinediamine], the IC50 under setting [2] is above 10 µM.
`CCOC(=O)CNc1cccc(Nc2ncc(F)c(Nc3cccc(O)c3)n2)c1` [Compound R950216]: the IC50 under setting [3] stood at 0.327 µM.
Take `COc1ccc(Nc2ncc(F)c(Nc3ccc(OC)c(C(=O)O)c3)n2)cc1C(=O)O` [Compound R945067, N2,N4-Bis(3-carboxy-4-methoxyphenyl)-5-fluoro-2,4-pyrimidinediamine]: the IC50 under setting [1] was above 10 µM.
Still for that read-out and setting: the result for `OC(CNc1ncc(F)c(NCC(O)c2ccccc2)n1)c1ccccc1` (stereo not drawn) [Compound R925768, N2,N4-Bis(2-hydroxy-2-phenylethyl)-5-fluoro-2,4-pyrimidinediamine] reads above 10 µM; that for `Oc1cccc(Nc2ncc(F)c(Nc3ccc4ncccc4c3)n2)c1` [Compound R927019, 5-Fluoro-N2-(3-hydroxyphenyl)-N4-(quinolin-6-yl)-2,4-pyrimidinediamine], 1.18 µM.
For the compound `O=C(O)c1cc2cc(Nc3ncc(F)c(Nc4ccc5c(c4)OCCO5)n3)ccc2o1` [Compound R926698, N4-(3,4-Ethylenedioxyphenyl)-5-fluoro-N2-(2-carboxybenzofuran-5-yl)-2,4-pyrimidinediamine], the IC50 under setting [1] was above 10 µM.
For `O=C(O)c1cc2cc(Nc3ncc(F)c(Nc4cccc(O)c4)n3)ccc2o1` [Compound R926478, N2-(2-Carboxybenzofuran-5-yl)-5-fluoro-N4-(3-hydroxyphenyl)-2,4-pyrimidinediamine], the IC50 under setting [1] was above 10 µM.
With `O=C(O)Cc1cccc(Nc2ncc(F)c(Nc3cccc(CC(=O)O)c3)n2)c1` [Compound R935117], the IC50 under setting [3] was above 10 µM.
As to `COC(=O)c1cc(N)cc(Nc2ccnc(Nc3cc(N)cc(C(=O)OC)c3)n2)c1` [Compound R950132, N2,N4-Bis(3-amino-5-methoxycarbonylphenyl)-2,4-pyrimidinediamine], the IC50 under setting [1] stood at 9 µM.
As to `Cc1ccc(Nc2ccnc(Nc3ccc(C)c([N+](=O)[O-])c3)n2)cc1[N+](=O)[O-]` [Compound R950153, N2,N4-Bis(4-methyl-3-nitrophenyl)-2,4-pyrimidinediamine], the IC50 under setting [2] was above 10 µM.
Consider `CC(C)Oc1ccc(Nc2ncc(F)c(Nn3cccc3)n2)cc1` [Compound R935276, 5-Fluoro-N2-(4-isopropoxyphenyl)-N4-(1H-pyrrol-1-yl)-2,4-pyrimidinediamine], for which the IC50 under setting [1] amounted to 2.33 µM.
Consider `Nc1cc(Nc2ccnc(Nc3cc(N)cc(C(F)(F)F)c3)n2)cc(C(F)(F)F)c1` [Compound R950143, N2,N4-Bis(3-amino-5-trifluoromethylphenyl)-2,4-pyrimidinediamine], for which the IC50 under setting [1] came to 8.23 µM.
For `Cc1ccc(Nc2ccnc(Nc3ccc(C)c(N)c3)n2)cc1N` [Compound R950130, N2,N4-Bis(3-amino-4-methylphenyl)-2,4-pyrimidinediamine], the IC50 under setting [1] came out at 4.9 µM.
Regarding `COCCNc1ncc(F)c(Nc2ccc3c(c2)OCCO3)n1` [Compound R926229, N4-(3,4-Ethylenedioxyphenyl)-5-fluoro-N2-(2-methoxyethyl)-2,4-pyrimidinediamine], the IC50 (Homo sapiens, Mast cell, Low Density CHMC, anti-IgE activation, hexosaminidase readout, read-out: CHMC anti-IgE Hexos.) is above 10 µM.
For the compound `CCOC(=O)C1CCN(C(=O)c2cccc(Nc3ncc(F)c(Nc4cccc(O)c4)n3)c2)CC1` [Compound R926939, N2-[3-[[4-(Ethoxycarbonyl)piperidino]carbonyl]phenyl]-5-fluoro-N4-(3-hydroxyphenyl)-2,4-pyrimidinediamine], the IC50 under setting [1] turned out to be 3.62 µM.
Regarding `Cc1ccc(Nc2ncc(F)c(Nc3ccc(C)c([N+](=O)[O-])c3)n2)cc1[N+](=O)[O-]` [Compound R950144, N2,N4-Bis(4-methyl-3-nitrophenyl)-5-fluoro-2,4-pyrimidinediamine], the IC50 under setting [2] turned out to be 10 µM.
With `O=[N+]([O-])c1cc(Nc2ccnc(Nc3ccc(F)c([N+](=O)[O-])c3)n2)ccc1F` [Compound R950152, N2,N4-Bis(4-fluoro-3-nitrophenyl)-2,4-pyrimidinediamine], the IC50 under setting [2] turned out to be 10 µM.
Turning to `CCOc1ccc(Nc2ccnc(Nc3ccc(OCC)c(N)c3)n2)cc1N` [Compound R950142, N2,N4-Bis(3-amino-4-ethoxyphenyl)-2,4-pyrimidinediamine], the IC50 under setting [1] amounted to 10 µM.
As to `Cc1ccc(CNc2ncc(F)c(Nc3ccc4c(c3)OCCO4)n2)cc1Cl` [Compound R908696, N2-(3-chloro-4-methylbenzyl)-N4-(3,4-ethylenedioxyphenyl)-5-fluoro-2,4-pyrimidinediamine], under setting [1], the IC50 worked out at 3.55 µM.
In the case of `CN1C(=O)COc2ccc(Nc3nc(Nc4cccc(O)c4)ncc3F)cc21` [Compound R908709, 5-Fluoro-N2-(3-hydroxyphenyl)-N4-(N-methyl-1,4-benzoxazin-3-on-6-yl)-2,4-pyrimidinediamine], under setting [1], the IC50 was found to be 2.41 µM.
With `Cc1noc(C)c1Nc1ncc(F)c(Nc2ccc3c(c2)OCCO3)n1` [Compound R926744, N4-(3,4-Ethylenedioxyphenyl)-5-fluoro-N2-(3,5-dimethylisoxazol-4-yl)-2,4-pyrimidinediamine], under setting [1], the IC50 is above 10 µM.
With `Nc1ccc(F)c(Nc2ncc(F)c(Nc3cc(N)ccc3F)n2)c1` [Compound R950158, N2,N4-Bis(5-amino-2-fluorophenyl)-5-fluoro-2,4-pyrimidinediamine], under setting [1], the IC50 came to 9.98 µM.
Consider `CC(C)(CO)c1ccc(Nc2nc(Nc3ccc4c(c3)OCCO4)ncc2F)cc1` [Compound R935149, N2-(3,4-Ethylenedioxyphenyl)-N4-[4-(2-hydroxy-1,1-dimethylethyl)phenyl]-5-fluoro-2,4-pyrimidinediamine], for which, under setting [1], the IC50 was determined as 0.708 µM.
Same read-out and setting: the result for `CCOC(=O)c1cnc(Nc2ccc3c(c2)OCCO3)nc1Nc1ccc2c(c1)OCCO2` [Compound R926252, N2,N4-Bis(3,4-ethylenedioxyphenyl)-5-ethoxycarbonyl-2,4-pyrimidinediamine] reads 2.8 µM; that for `O=C(O)c1cc2cc(Nc3ncc(F)c(Nc4cccc(O)c4)n3)ccc2[nH]1` [Compound R926479, N2-(2-Carboxyindol-5-yl)-5-fluoro-N4-(3-hydroxyphenyl)-2,4-pyrimidinediamine], above 10 µM.
On the same count and under the same terms, the result for `Nc1c(F)ccc(Nc2ncc(F)c(Nc3ccc(F)c(N)c3F)n2)c1F` [Compound R950138, N2,N4-Bis(3-amino-2,4-difluorophenyl)-5-fluoro-2,4-pyrimidinediamine] reads 9.5 µM; that for `CCOC(=O)C1CCN(C(=O)c2cccc(Nc3nc(Nc4cccc(O)c4)ncc3F)c2)CC1` [Compound R926940, N4-[3-[[4-(Ethoxycarbonyl)piperidino]carbonyl]phenyl]-5-fluoro-N2-(3-hydroxyphenyl)-2,4-pyrimidinediamine], 7.75 µM; that for `Cc1ccc(Nc2nc(Nc3cccc(O)c3)ncc2F)nc1` [Compound R927017, 5-Fluoro-N2-(3-hydroxyphenyl)-N4-(5-methylpyridin-2-yl)-2,4-pyrimidinediamine], 2.45 µM.
Regarding `Fc1cnc(NCc2ccco2)nc1NCc1ccco1` [Compound R925769, N2,N4-Bis(furfuryl)-5-fluoro-2,4-pyrimidinediamine], the IC50 under setting [1] is above 10 µM.
